Non-standard residues stand in square brackets, D forms with d. Residues, ends and D or L forms follow the SMILES beside them. *: point of attachment. Dolaproine = CO[C@@H]([C@@H]1CCCN1)[C@@H](C)C(=O)O; Dil = CC[C@H](C)[C@H](NC)[C@@H](CC(=O)O)OC; X1 = C[C@@H](N*)[C@@H](O)c1ccccc1; NMeV = CN[C@H](C(=O)O)C(C)C

Common to all, as to experiment: ADC cytotoxicity (Cell Titer-Glo cell viability)
What all share (assay type): cell-based
(In general: In ATP-based viability assays light output follows the ATP content of the culture.)

The test system of one assay is 293T cells. On the procedure: (§1) The cell-killing activity of anti-ENPP1 CAR^+ T cells and BiTEs were measured by LDH-Glo cytotoxicity assay kit (Promega, Madison, WI, USA). For the cell-killing activity of anti-ENPP1 CAR^+ T cells, control T cells or CAR^+ T cells as effector cells were incubated with 293T, 293T-ENPP1, and HepG2 target cells (5×10^3 cells/well in 96-well plate) separately at indicated E:T ratio for 24 hours at 37° C. For the cell-killing activity of BiTEs, target cells (1×10^4 cells/well) were mixed with serially diluted BiTEs in 50 μL of growth medium, and […] activated T cells were added at the ET ratio 10:1 and cultured for 24 hours at 37° C. in 5% CO2 humidified atmosphere. Controls for the calculation of percentage cytotoxicity were performed according to the manufacturer's instructions. The calculation of relative % cytotoxicity as follows: relative % cytotoxicity=100×(Experimental LDH release-medium background)/(target and effector maximum LDH release control-medium background). For the cell-killing activity of ADC, 293T, 293T-ENPP1, and HepG2 cells were seeded at 2000 cells/well in 96-well white plate and incubated overnight at 37° C. in 5% CO2. Serial diluted anti-ENPP1 ADC was added and cultured for 4 days at 37° C. in 5% CO2. Images were captured under a 4×objective microscope (Olympus microscope, Westborough, MA, USA). Controls with cells only were used for calculation of percent relative cell viability. At the end of the time point, the Cell Titer-Glo Luminescent cell viability assay kit (Promega) was used to measure the cell viability. The calculation of % Relative cell viability was as follows: % Relative cell viability=100×(Experimental luminescence values-medium Background)/(Control luminescence values-medium Background). For ADCC, the ADCC reporter bioassay complete kit (Promega) was used, the experiment was performed following the manufacturer's instructions. The 293T-ENPP1 cell line was used as target cell.

The next assay concerns 293T-ENPP1 cells. The protocol: as §1
For a further assay, the system named is HepG2 cells. Particulars: 200 nM. The protocol: as §1

Turning to `CC[C@H](C)[C@@H]([C@@H](CC(=O)N1CCC[C@H]1[C@H](OC)[C@@H](C)C(=O)N[C@H](C)[C@@H](O)c1ccccc1)OC)N(C)C(=O)[C@@H](NC(=O)[C@@H](NC)C(C)C)C(C)C` [MMAE, monomethyl auristatin E, reference compound] (H-[NMeV]V[Dil][Dolaproine]-X1), the “killing at 200 nM” value with 293T cells (200 nM) and with 293T-ENPP1 cells was “non-specific killing” throughout. For the same compound, the “killing at lower concentrations” value with 293T cells (concentrations below 200 nM) is listed as “no non-specific killing”. Further, the “killing effects of free MMAE and ADC compared” value with HepG2 cells is reported as “comparable”.

Source of the values: patent publication US20250177530A1, “MOLECULES THAT BIND TO ENPP1 POLYPEPTIDES” (UNIVERSITY OF PITTSBURGH - OF THE COMMONWEALTH SYSTEM OF …, priority 2022, published 2025).
